Experimental data from ChEMBL document CHEMBL4622981, “Exploration of TRPM8 Binding Sites by β-Carboline-Based Antagonists and Their In Vitro Characterization and In Vivo Analgesic Activities” (J Med Chem, 2020).
Activity calls are given as the source filed them. No cut-off for these calls is given here.

Tests used:
[1] = Stability in human liver microsomes at 2.5 mM measured up to 60 mins in absence of phase 1 cofactor NADPH by HPLC analysis; type: ADME, Microsome; details: 1 h, 2500 µM
[2] = Stability in human liver microsomes assessed as metabolic turnover at 2.5 mM preincubated for 5 mins followed by phase 1 cofactor NADPH addition measured for 60 mins by HPLC analysis; type: ADME, Microsome; details: read-out: Drug metabolism
[3] = Stability in human liver microsomes at 2.5 mM measured up to 60 mins in absence of phase 2 cofactor UDP-GlcUA/NADPH by HPLC analysis; type: ADME, Microsome; details: 1 h, 2500 µM
Rattus norvegicus [4] = assay: Inhibition of icilin-induced wet-dog shake in Wistar rat model at 10 mg/kg, ip treated 30 mins prior to icilin challenge measured for 30 mins; type: functional, organism-based
Rattus norvegicus [5] = assay: Inhibition of icilin-induced wet-dog shake in Wistar rat model at 10 mg/kg, ip treated 2 hrs prior to icilin challenge measured for 30 mins; type: functional, organism-based

Compound	Stability [1]	metabolised at 1 h [2] [%]	Stability [3]	inhibition (Rattus norvegicus [4])	inhibition (Rattus norvegicus [5])
O=C1N[C@H](Cc2ccccc2)C(=O)N2Cc3[nH]c4ccccc4c3C[C@@H]12	Stable	1.1 to 72	Stable		
COC(=O)CC[C@H]1N[C@H](C(=O)NCc2ccc(F)cc2)Cc2c1[nH]c1ccccc21		1.1 to 72			
O=C1[C@@H]2Cc3c([nH]c4ccccc34)[C@@H](c3ccc(Cl)cc3)N2C(=O)N1Cc1ccc(F)cc1	Stable	26.5	Stable		

Continued, in another order:

Stability [1]	metabolised at 1 h [2] [%]	Stability [3]	Compound	inhibition (Rattus norvegicus [4])	inhibition (Rattus norvegicus [5])
Stable		Stable	COC(=O)C(Cc1c[nH]c2ccccc12)N(Cc1ccccc1)Cc1ccccc1 (centres undefined)	Active	inactive
Stable	1.1 to 72	Stable	COC(=O)[C@@H]1Cc2c([nH]c3ccccc23)[C@@H](c2ccccc2)N1Cc1ccccc1		
